Key:
Assay in all cases: Test B pre-/postemergence
Format in all cases: in vivo
Parameters in all cases: key: 0 is no effect; 10 is complete control
[1] = system: bedstraw (Galium aparine)
How it was run: (§1)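 Compounds in a surfactant-containing, non-phytotoxic solvent blend are applied to freshly planted seed (preemergence) and, concurrently, to seedlings of 2 to 18 cm at 1–4 leaves (postemergence). Plants stay in the greenhouse twelve to sixteen days and are then scored visually from 0 (no effect) to 10 (complete control).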

[2] = system: cocklebur (Xanthium strumarium)
How it was run: as §1

corn (Zea mays) = system: corn (Zea mays)
How it was run: as §1

[3] = system: crabgrass (Digitaria sanguinalis)
How it was run: as §1

[4] = system: giant foxtail (Setaria faberii)
How it was run: as §1

[5] = system: momingglory (Ipomoea hederacea)
How it was run: as §1

[6] = system: pigweed (Amaranthus retroflexus)
How it was run: as §1

[7] = system: purple nutsedge (Cyperus rotundus)
How it was run: as §1

rape (Brassica napus) = system: rape (Brassica napus)
How it was run: as §1

soybean (Glycine max) = system: soybean (Glycine max)
How it was run: as §1

[8] = system: sugar beet (Beta vulgaris)
How it was run: as §1

[9] = system: velvetleaf (Abutilon theophrasti)
How it was run: as §1

[10] = system: wheat (Triticum aestivum)
How it was run: as §1

wild oat (Avena fatua) = system: wild oat (Avena fatua)
How it was run: as §1

[11] = Preemergence, Rate 62 g/ha, scale of 0 to 10

Cc1cnc(-n2ccc(C(F)(F)F)n2)nc1C(=O)c1cccc(OC(F)(F)F)c1 [Compound 66]
0: Plant response rating, Cocklebur [2, 11] | Plant response rating, Cocklebur ([2]; Rate 125 g/ha, Preemergence) | Plant response rating, Cocklebur ([2]; Rate 250 g/ha, Preemergence) | Plant response rating, Corn (corn (Zea mays); [11]) | Plant response rating, Giant foxtail [4, 11] | Plant response rating, Nutsedge [7, 11] | Nutsedge plant response rating ([7]; Rate 62 g/ha, Postemergence) | Plant response rating, Nutsedge ([7]; Rate 500 g/ha, Preemergence) | Plant response rating, Rape (rape (Brassica napus); [11]) | Plant response rating, Rape (rape (Brassica napus); Rate 125 g/ha, Preemergence) | Plant response rating, Soybean (soybean (Glycine max); [11]) | Plant response rating, Soybean (soybean (Glycine max); Rate 125 g/ha, Preemergence) | Plant response rating, Soybean (soybean (Glycine max); Rate 250 g/ha, Preemergence) | Plant response rating, Wheat [10, 11]
5: Plant response rating, Cocklebur ([2]; Rate 500 g/ha, Postemergence) | Soybean plant response rating (soybean (Glycine max); Rate 62 g/ha, Postemergence) | Soybean plant response rating (soybean (Glycine max); Rate 125 g/ha, Postemergence) | Velvetleaf plant response rating ([9]; Rate 125 g/ha, Postemergence) | Plant response rating, Wild oats (wild oat (Avena fatua); Rate 250 g/ha, Preemergence) | Plant response rating, Wild oats (wild oat (Avena fatua); Rate 500 g/ha, Preemergence)
6: Plant response rating, Bedstraw ([1]; Rate 250 g/ha, Postemergence) | Plant response rating, Crabgrass [3, 11] | Plant response rating, Soybean (soybean (Glycine max); Rate 250 g/ha, Postemergence) | Plant response rating, Velvetleaf ([9]; Rate 250 g/ha, Postemergence)
7: Crabgrass plant response rating ([3]; Rate 125 g/ha, Postemergence) | Plant response rating, Redroot pigweed [6, 11] | Plant response rating, Rape (rape (Brassica napus); Rate 250 g/ha, Postemergence) | Plant response rating, Rape (rape (Brassica napus); Rate 500 g/ha, Postemergence) | Plant response rating, Soybean (soybean (Glycine max); Rate 500 g/ha, Postemergence)
9: Plant response rating, Crabgrass ([3]; Rate 125 g/ha, Preemergence) | Plant response rating, Crabgrass ([3]; Rate 250 g/ha, Preemergence) | Plant response rating, Crabgrass ([3]; Rate 500 g/ha, Preemergence) | Plant response rating, Morningglory ([5]; Rate 250 g/ha, Postemergence) | Plant response rating, Morningglory ([5]; Rate 500 g/ha, Preemergence) | Redroot pigweed plant response rating ([6]; Rate 125 g/ha, Postemergence) | Plant response rating, Redroot pigweed ([6]; Rate 125 g/ha, Preemergence) | Plant response rating, Redroot pigweed ([6]; Rate 250 g/ha, Preemergence) | Plant response rating, Sugarbeets [8, 11]
1: Plant response rating, Bedstraw [1, 11] | Corn plant response rating (corn (Zea mays); Rate 62 g/ha, Postemergence) | Plant response rating, Corn (corn (Zea mays); Rate 125 g/ha, Preemergence) | Plant response rating, Corn (corn (Zea mays); Rate 250 g/ha, Preemergence) | Plant response rating, Giant foxtail ([4]; Rate 125 g/ha, Preemergence) | Nutsedge plant response rating ([7]; Rate 125 g/ha, Postemergence) | Plant response rating, Nutsedge ([7]; Rate 250 g/ha, Postemergence) | Plant response rating, Nutsedge ([7]; Rate 500 g/ha, Postemergence) | Plant response rating, Soybean (soybean (Glycine max); Rate 500 g/ha, Preemergence) | Plant response rating, Velvetleaf [9, 11] | Plant response rating, Wheat ([10]; Rate 125 g/ha, Preemergence)
4: Cocklebur plant response rating ([2]; Rate 125 g/ha, Postemergence) | Plant response rating, Cocklebur ([2]; Rate 250 g/ha, Postemergence) | Plant response rating, Giant foxtail ([4]; Rate 500 g/ha, Postemergence) | Plant response rating, Giant foxtail ([4]; Rate 500 g/ha, Preemergence) | Morningglory plant response rating ([5]; Rate 125 g/ha, Postemergence) | Plant response rating, Rape (rape (Brassica napus); Rate 250 g/ha, Preemergence) | Velvetleaf plant response rating ([9]; Rate 62 g/ha, Postemergence) | Plant response rating, Velvetleaf ([9]; Rate 125 g/ha, Preemergence) | Plant response rating, Wild oats (wild oat (Avena fatua); Rate 125 g/ha, Preemergence)
2: Bedstraw plant response rating ([1]; Rate 62 g/ha, Postemergence) | Plant response rating, Bedstraw ([1]; Rate 125 g/ha, Preemergence) | Corn plant response rating (corn (Zea mays); Rate 125 g/ha, Postemergence) | Plant response rating, Corn (corn (Zea mays); Rate 250 g/ha, Postemergence) | Crabgrass plant response rating ([3]; Rate 62 g/ha, Postemergence) | Giant foxtail plant response rating ([4]; Rate 62 g/ha, Postemergence) | Giant foxtail plant response rating ([4]; Rate 125 g/ha, Postemergence) | Plant response rating, Giant foxtail ([4]; Rate 250 g/ha, Postemergence) | Plant response rating, Giant foxtail ([4]; Rate 250 g/ha, Preemergence) | Plant response rating, Morningglory [5, 11] | Morningglory plant response rating ([5]; Rate 62 g/ha, Postemergence) | Wheat plant response rating ([10]; Rate 62 g/ha, Postemergence) | Wheat plant response rating ([10]; Rate 125 g/ha, Postemergence) | Plant response rating, Wheat ([10]; Rate 250 g/ha, Postemergence) | Plant response rating, Wheat ([10]; Rate 250 g/ha, Preemergence) | Plant response rating, Wild oats (wild oat (Avena fatua); [11]) | Wild oats plant response rating (wild oat (Avena fatua); Rate 62 g/ha, Postemergence) | Wild oats plant response rating (wild oat (Avena fatua); Rate 125 g/ha, Postemergence) | Plant response rating, Wild oats (wild oat (Avena fatua); Rate 250 g/ha, Postemergence)
10: Plant response rating, Crabgrass ([3]; Rate 500 g/ha, Postemergence) | Plant response rating, Morningglory ([5]; Rate 500 g/ha, Postemergence) | Plant response rating, Redroot pigweed ([6]; Rate 250 g/ha, Postemergence) | Plant response rating, Redroot pigweed ([6]; Rate 500 g/ha, Postemergence) | Plant response rating, Redroot pigweed ([6]; Rate 500 g/ha, Preemergence) | Sugarbeets plant response rating ([8]; Rate 62 g/ha, Postemergence) | Sugarbeets plant response rating ([8]; Rate 125 g/ha, Postemergence) | Plant response rating, Sugarbeets ([8]; Rate 125 g/ha, Preemergence) | Plant response rating, Sugarbeets ([8]; Rate 250 g/ha, Postemergence) | Plant response rating, Sugarbeets ([8]; Rate 250 g/ha, Preemergence) | Plant response rating, Sugarbeets ([8]; Rate 500 g/ha, Postemergence) | Plant response rating, Sugarbeets ([8]; Rate 500 g/ha, Preemergence)
8: Plant response rating, Bedstraw ([1]; Rate 500 g/ha, Postemergence) | Plant response rating, Bedstraw ([1]; Rate 500 g/ha, Preemergence) | Plant response rating, Crabgrass ([3]; Rate 250 g/ha, Postemergence) | Redroot pigweed plant response rating ([6]; Rate 62 g/ha, Postemergence) | Plant response rating, Rape (rape (Brassica napus); Rate 500 g/ha, Preemergence) | Plant response rating, Velvetleaf ([9]; Rate 250 g/ha, Preemergence) | Plant response rating, Velvetleaf ([9]; Rate 500 g/ha, Postemergence) | Plant response rating, Velvetleaf ([9]; Rate 500 g/ha, Preemergence)
3: Bedstraw plant response rating ([1]; Rate 125 g/ha, Postemergence) | Plant response rating, Bedstraw ([1]; Rate 250 g/ha, Preemergence) | Cocklebur plant response rating ([2]; Rate 62 g/ha, Postemergence) | Plant response rating, Cocklebur ([2]; Rate 500 g/ha, Preemergence) | Plant response rating, Corn (corn (Zea mays); Rate 500 g/ha, Postemergence) | Plant response rating, Corn (corn (Zea mays); Rate 500 g/ha, Preemergence) | Plant response rating, Morningglory ([5]; Rate 125 g/ha, Preemergence) | Plant response rating, Morningglory ([5]; Rate 250 g/ha, Preemergence) | Rape plant response rating (rape (Brassica napus); Rate 62 g/ha, Postemergence) | Rape plant response rating (rape (Brassica napus); Rate 125 g/ha, Postemergence) | Plant response rating, Wheat ([10]; Rate 500 g/ha, Postemergence) | Plant response rating, Wheat ([10]; Rate 500 g/ha, Preemergence) | Plant response rating, Wild oats (wild oat (Avena fatua); Rate 500 g/ha, Postemergence)
